Measured values from patent US6589973B1, “Preparation of selective cyclooxygenase II inhibitors” (THEMIS Medicare Ltd., priority 2002, dated 2003).

Legend:
[1] = background statement; cited from earlier work
[2] = tested on: Hot Plate Analgesometer in rats; test: Central analgesic activity, hot plate (55° C) in rats; set-up: species or system Albino rats; details: rat, in vivo

Compound | solubility in water (in words) [1] | other results
Itacoxib | poorly soluble in water | 
Cc1ccc(-c2cc(C(F)(F)F)nn2-c2ccc(S(N)(=O)=O)cc2)cc1 [Celecoxib] | poorly soluble in water | 
Cc1onc(-c2ccccc2)c1-c1ccc(S(N)(=O)=O)cc1 [Valdecoxib] | poorly soluble in water | 
CS(=O)(=O)c1ccc(C2=C(c3ccccc3)C(=O)OC2)cc1 [Rofecoxib] | poorly soluble in water | 
CC(C)=CCN1CCC2(C)c3cc(O)ccc3CC1C2C (centres unmarked) [Pentazocin] |  | % Increase in Reaction Time (IRT) [2]: 92.85%; Basal Reaction Time (BRT) [2]: 6.33 ± 0.41 s; Latent Reaction Time (LRT) [2]: 11.66 ± 1.60 s
COc1ccc(-c2cc(C(F)F)nn2-c2ccc(S(N)(=O)=O)cc2)cc1F [Deracoxib] | poorly soluble in water | 
